Test results as given in ChEMBL document CHEMBL3425494, “Design, synthesis, and antitumor evaluation of novel histone deacetylase inhibitors equipped with a phenylsulfonylfuroxan module as a nitric oxide donor” (J Med Chem, 2015).

Tests used:
[1] = target: Histone deacetylase (HDAC1 and HDAC2) (Homo sapiens, UniProt Q13547+Q92769); assay: Inhibition of HDAC1/HDAC2 in human HeLa cells using Boc-Lys(acetyl)-AMC as substrate after 30 mins by fluorescence assay; assay type: cell-based
HEL [2] = assay: Cytotoxicity against human HEL cells assessed as growth inhibition after 48 hrs by MTT assay; assay type: functional, cell-based
[3] = Cytotoxicity against human HCT116 cells assessed as growth inhibition after 48 hrs by MTT assay; assay type: functional, cell-based; details: HCT-116, 48 h
[4] = Cytotoxicity against human U937 cells assessed as growth inhibition after 48 hrs by MTT assay; assay type: functional, cell-based; details: U-937, 48 h
[5] = Cytotoxicity against human 3AO cells assessed as growth inhibition after 48 hrs by MTT assay; assay type: functional, cell-based
[6] = Cytotoxicity against human MDA cells assessed as growth inhibition after 48 hrs by MTT assay; assay type: functional, cell-based
[7] = Cytotoxicity against human ES2 cells assessed as growth inhibition after 48 hrs by MTT assay; assay type: functional, cell-based; details: ES-2, 48 h
[8] = Cytotoxicity against human KG1 cells assessed as growth inhibition after 48 hrs by MTT assay; assay type: functional, cell-based; details: KG-1, 48 h
HeLa = assay: Cytotoxicity against human HeLa cells assessed as growth inhibition after 48 hrs by MTT assay; assay type: functional, cell-based
HEL [9] = assay: Cytotoxicity against human HEL cells assessed as growth inhibition after 48 hrs by MTT assay in presence of SAHA; assay type: functional, cell-based
HEL [10] = assay: Cell cycle arrest in human HEL cells assessed as accumulation at G1 phase at 0.5 uM after 48 hrs by propidium iodide staining-based flow cytometric analysis (reference value: 47.87%); assay type: functional
HEL [11] = assay: Cell cycle arrest in human HEL cells assessed as accumulation at G2 phase at 0.5 uM after 48 hrs by propidium iodide staining-based flow cytometric analysis (reference value: 5.28%); assay type: functional
HEL [12] = assay: Cell cycle arrest in human HEL cells assessed as accumulation at S phase at 0.5 uM after 48 hrs by propidium iodide staining-based flow cytometric analysis (reference value: 46.88%); assay type: functional

## O=C(COCCOc1no[n+]([O-])c1S(=O)(=O)c1ccccc1)NO
[1]
  IC50: 1.5 µM
HEL [2]
  IC50: 6.79 µM
[3]
  IC50: 13.4 µM
[4]
  IC50: 8.15 µM
[5]
  IC50: 19.8 µM
[6]
  IC50: 15.1 µM
[7]
  IC50: 8.69 µM
[8]
  IC50: 7.4 µM

## O=C(COCCOCCOc1no[n+]([O-])c1S(=O)(=O)c1ccccc1)NO
[1]
  IC50: 4.3 µM
HEL [2]
  IC50: 3.73 µM
[3]
  IC50: 11.7 µM
HeLa
  IC50: 5.14 µM
[4]
  IC50: 12.1 µM
[5]
  IC50: 19.4 µM
[6]
  IC50: 15.8 µM
[7]
  IC50: 18.1 µM
[8]
  IC50: 5.38 µM

## O=C(CCCCOc1no[n+]([O-])c1S(=O)(=O)c1ccccc1)NO
[1]
  IC50: 0.13 µM
HEL [2]
  IC50: 1.03 µM
[3]
  IC50: 2.18 µM
HeLa
  IC50: 3.65 µM
[4]
  IC50: 2.91 µM
[5]
  IC50: 4.3 µM
[6]
  IC50: 2.53 µM
[7]
  IC50: 2.53 µM
[8]
  IC50: 1.91 µM

## O=C(/C=C/c1ccc(Oc2no[n+]([O-])c2S(=O)(=O)c2ccccc2)cc1)NO
[1]
  IC50: 0.15 µM
HEL [2]
  IC50: 2.41 µM
[3]
  IC50: 8.09 µM
HeLa
  IC50: 10.4 µM
[4]
  IC50: 16.1 µM
[5]
  IC50: 38.1 µM
[6]
  IC50: 25.6 µM
[7]
  IC50: 24.1 µM
[8]
  IC50: 2.75 µM

## O=S(=O)(c1ccccc1)c1no[n+]([O-])c1S(=O)(=O)c1ccccc1
[1]
  IC50: > 1000 µM
HEL [2]
  IC50: 0.69 µM
HEL [9]
  IC50: 0.53 µM
HEL [10]
  Activity: 53.4%
HEL [11]
  Activity: 3.3%
HEL [12]
  Activity: 43.29%

## CC(C)(COc1no[n+]([O-])c1S(=O)(=O)c1ccccc1)C(=O)NO
[1]
  IC50: > 1000 µM
HEL [2]
  IC50: 5.01 µM
[4]
  IC50: 12.5 µM
[5]
  IC50: 18.3 µM
[6]
  IC50: 9.55 µM
[7]
  IC50: 6.88 µM
[8]
  IC50: 6.08 µM

## O=S(=O)(c1ccccc1)c1c(OCCCCCCO)no[n+]1[O-]
[1]
  IC50: > 1000 µM
HEL [2]
  IC50: 2.16 µM

## O=C(NO)c1ccc(Oc2no[n+]([O-])c2S(=O)(=O)c2ccccc2)cc1
[1]
  IC50: 0.047 µM
HEL [2]
  IC50: 0.92 µM
[3]
  IC50: 2.7 µM
HeLa
  IC50: 1.73 µM
[4]
  IC50: 4.73 µM
[5]
  IC50: 4.35 µM
[6]
  IC50: 6.66 µM
[7]
  IC50: 2.19 µM
[8]
  IC50: 1.24 µM

## O=C(Cc1ccc(Oc2no[n+]([O-])c2S(=O)(=O)c2ccccc2)cc1)NO
[1]
  IC50: 0.14 µM
HEL [2]
  IC50: 13 µM
[3]
  IC50: 14.2 µM
HeLa
  IC50: 10.4 µM
[4]
  IC50: 5.01 µM
[5]
  IC50: 22.2 µM
[6]
  IC50: 15 µM
[7]
  IC50: 4.13 µM
[8]
  IC50: 1.8 µM

## O=C(/C=C/COc1no[n+]([O-])c1S(=O)(=O)c1ccccc1)NO
[1]
  IC50: 3.7 µM
HeLa
  IC50: 8.74 µM
[5]
  IC50: 57.7 µM
[6]
  IC50: 47.7 µM
[7]
  IC50: 19.1 µM

## O=C(CCCCCCCOc1no[n+]([O-])c1S(=O)(=O)c1ccccc1)NO
[1]
  IC50: 0.063 µM
HEL [2]
  IC50: 10.8 µM
HeLa
  IC50: 5.03 µM
[4]
  IC50: 9.3 µM
[6]
  IC50: 2.7 µM
[7]
  IC50: 1.32 µM
[8]
  IC50: 0.63 µM

## O=C(NO)c1cccc(Oc2no[n+]([O-])c2S(=O)(=O)c2ccccc2)c1
[1]
  IC50: 1.6 µM
HEL [2]
  IC50: 2.6 µM
[3]
  IC50: 4.57 µM
HeLa
  IC50: 4.67 µM
[4]
  IC50: 6.49 µM
[5]
  IC50: 9.94 µM
[6]
  IC50: 13.9 µM
[7]
  IC50: 4.19 µM
[8]
  IC50: 1.86 µM

## O=C(CCCCCCOc1no[n+]([O-])c1S(=O)(=O)c1ccccc1)NO
[1]
  IC50: 0.054 µM
HEL [2]
  IC50: 9.33 µM
[3]
  IC50: 4.69 µM
[4]
  IC50: 9.93 µM
[6]
  IC50: 1.21 µM
[7]
  IC50: 7.73 µM
[8]
  IC50: 4.27 µM

## O=C(CCCOc1no[n+]([O-])c1S(=O)(=O)c1ccccc1)NO
[1]
  IC50: 0.047 µM
HEL [2]
  IC50: 0.67 µM
HeLa
  IC50: 4.79 µM
[4]
  IC50: 3.3 µM
[5]
  IC50: 22 µM
[6]
  IC50: 6.2 µM
[7]
  IC50: 3.78 µM
[8]
  IC50: 1.48 µM

## COc1cc(C(=O)NO)ccc1Oc1no[n+]([O-])c1S(=O)(=O)c1ccccc1
[1]
  IC50: 7.3 µM
HEL [2]
  IC50: 5.55 µM
[3]
  IC50: 5.03 µM
HeLa
  IC50: 2.26 µM
[4]
  IC50: 3.64 µM
[5]
  IC50: 1.24 µM
[6]
  IC50: 8.02 µM
[7]
  IC50: 3.55 µM
[8]
  IC50: 1.65 µM

## O=C(CCCCCCC(=O)Nc1ccccc1)NO [VORINOSTAT]
HEL [11]
  Activity: 0%
HEL [12]
  Activity: 20.02%

## CCCC(C)(COc1no[n+]([O-])c1S(=O)(=O)c1ccccc1)C(=O)NO (stereo not drawn)
[1]
  IC50: > 1000 µM
HEL [2]
  IC50: 71.5 µM
[3]
  IC50: 66.1 µM
[4]
  IC50: 25.4 µM
[5]
  IC50: 88.7 µM
[6]
  IC50: 60.5 µM
[7]
  IC50: 93.3 µM
[8]
  IC50: 4.06 µM
